The text below walks through data of patent US20040163143A1, “Method for efficiently producing transgenic plant using auxin precursor” (NIPPON PAPER INDUSTRIES CO., LTD., priority 2002, published 2004).

For experiment [1], the system named is E. globulus hypocotyl sections. The experiment is described as follows: E. globulus gene introduction test, vector pIPT10 (ipt only + GUS), adventitious bud redifferentiation and GUS staining. As to conditions: for B/A Redifferentiation ratio / C/A Gene introduction ratio / C/B Selection efficiency: section basis. It is filed as cell-based, Eucalyptus globulus. The method, then: Seeds of E. globulus from Chile were sterilized by soaking in 70% ethanol for about 1 minute and then soaking with stirring in a 2% aqueous sodium hypochlorite solution for about 4 hours, washed thoroughly with sterile water, inoculated on an MS agar medium to which 0.5 mg/l zeatin had been added and stored in a refrigerator at 4° C. for 2 days to accelerate germination, and then the germination was carried out by culturing at 25° C. under light conditions of about 10 μmol/m^2/s in light intensity. One to two weeks after the inoculation of the seeds onto the germination medium, hypocotyls were collected by cutting out apical buds, cotyledons and roots of the germinated seedlings, and the hypocotyls were cut into sections of about 5 mm to be used as samples for gene introduction and subjected to the following test. A. tumefaciens EHA105 introduced with the plasmid pIAH6 in the above item I was cultured overnight in the YEB liquid medium and then diluted to OD630 =0.5 with EG basal medium, and the sections of hypocotyl prepared in the above were soaked in the cell suspension. Next, each of the sections after removing excess cell suspension was co-cultured with Agrobacterium on an agar medium (agar 8.5 g/l) prepared by adding 1.0 mg/l zeatin, 0.05 mg/l NAA and 40 mg/l acetosyringone to the EG basal medium, at 25° C. for 3 days in the dark to thereby infect each section with the pIAH6-introduced Agrobacterium. In this case, a modified MS medium having an ammonia nitrogen/nitrate nitrogen concentration ratio of 1:3 (5 mM NH4, 15 mM NO3) was supplemented with 20 g/l sucrose and used as the EG basal medium. The sections after infection culturing were put on an EG basal agar medium (agar 8.5 g/l) supplemented with 500 mg/l ticarcillin and 1 μM or 10 μM of an auxin precursor analogue NAM, and the culturing was continued at 25° C. under light conditions of 30 to 40 μmol/m^2/s in light intensity while sub-culturing at an interval of 2 weeks using the same medium. Among these sections, the quicker ones redifferentiated adventitious buds after about 2 months of the Agrobacterium infection. Three months after the Agrobacterium infection, in order to examine expression of the GUS gene used as a model of the desired gene, the redifferentiated adventitious buds were subjected to a GUS staining test in accordance with the method of Jefferson et al. (Plant Mol. Biol. Rep., 5: 387-405 (1987)), and the degree of formation of desired gene-introduced adventitious buds was judged by examining the number of stained adventitious buds (the number of adventitious buds expressing the desired gene). An E. globulus gene introduction test was carried out in the same manner as in Example 1, except that the hypocotyl sections after the Agrobacterium infection were cultured using the EG basal agar medium (agar 8.5 g/l) supplemented with 500 mg/l ticarcillin and 0 μM, 1 μM or 10 μM NAA as auxin. An E. globulus gene introduction test was carried out in the same manner as in Example 1 or Comparative Example 1, except that a plasmid pIPT10 having only the ipt gene as the selectable marker gene was used as the vector. Also, the vector also has the GUS gene as a model of the desired gene. Structure of T-DNA region of the pIPT10 used in this case is shown in FIG. 2, and results of the gene introduction test are shown in Table 3.

In experiment [2] the test system is E. globulus hypocotyl sections. Put plainly: E. globulus gene introduction test, vector pIAH6 (ipt + iaaH + GUS), adventitious bud redifferentiation and GUS staining. The experiment is classed as cell-based, Eucalyptus globulus. Conditions: for B/A Redifferentiation ratio / C/A Gene introduction ratio / C/B Selection efficiency: section basis. The method, then:
Using a plasmid pIAH6 as a vector having a GUS gene as a model of a desired gene and an ipt gene and an iaaH gene as selectable marker genes, a transformant was produced by carrying out gene introduction into Eucalyptus globulus (hereinafter referred to as “E. globulus”) by the method of the present invention. Seeds of E. globulus from Chile were sterilized by soaking in 70% ethanol for about 1 minute and then soaking with stirring in a 2% aqueous sodium hypochlorite solution for about 4 hours, washed thoroughly with sterile water, inoculated on an MS agar medium to which 0.5 mg/l zeatin had been added and stored in a refrigerator at 4° C. for 2 days to accelerate germination, and then the germination was carried out by culturing at 25° C. under light conditions of about 10 μmol/m^2/s in light intensity. One to two weeks after the inoculation of the seeds onto the germination medium, hypocotyls were collected by cutting out apical buds, cotyledons and roots of the germinated seedlings, and the hypocotyls were cut into sections of about 5 mm to be used as samples for gene introduction and subjected to the following test. A. tumefaciens EHA105 introduced with the plasmid pIAH6 in the above item I was cultured overnight in the YEB liquid medium and then diluted to OD630 =0.5 with EG basal medium, and the sections of hypocotyl prepared in the above were soaked in the cell suspension. Next, each of the sections after removing excess cell suspension was co-cultured with Agrobacterium on an agar medium (agar 8.5 g/l) prepared by adding 1.0 mg/l zeatin, 0.05 mg/l NAA and 40 mg/l acetosyringone to the EG basal medium, at 25° C. for 3 days in the dark to thereby infect each section with the pIAH6-introduced Agrobacterium. In this case, a modified MS medium having an ammonia nitrogen/nitrate nitrogen concentration ratio of 1:3 (5 mM NH4, 15 mM NO3) was supplemented with 20 g/l sucrose and used as the EG basal medium. The sections after infection culturing were put on an EG basal agar medium (agar 8.5 g/l) supplemented with 500 mg/l ticarcillin and 1 μM or 10 μM of an auxin precursor analogue NAM, and the culturing was continued at 25° C. under light conditions of 30 to 40 μmol/m^2/s in light intensity while sub-culturing at an interval of 2 weeks using the same medium. Among these sections, the quicker ones redifferentiated adventitious buds after about 2 months of the Agrobacterium infection. Three months after the Agrobacterium infection, in order to examine expression of the GUS gene used as a model of the desired gene, the redifferentiated adventitious buds were subjected to a GUS staining test in accordance with the method of Jefferson et al. (Plant Mol. Biol. Rep., 5: 387-405 (1987)), and the degree of formation of desired gene-introduced adventitious buds was judged by examining the number of stained adventitious buds (the number of adventitious buds expressing the desired gene). An E. globulus gene introduction test was carried out in the same manner as in Example 1, except that the hypocotyl sections after the Agrobacterium infection were cultured using the EG basal agar medium (agar 8.5 g/l) supplemented with 500 mg/l ticarcillin and 0 μM, 1 μM or 10 μM NAA as auxin.

The mark [3] stands for this setting: NAA 1 μM in medium, 62 sections tested.
Setting [4] is: NAA 10 μM in medium, 40 sections tested.

In the case of `O=C(O)Cc1cccc2ccccc12` [NAA, naphthaleneacetic acid], the “B Adventitious bud differentiated (number of sections)” value in experiment [1] (additive 1 μM in medium) is recorded as 9 number of sections; in experiment [1] (additive 10 μM in medium), 7 number of sections; in experiment [2] (setting [3]), 9 number of sections; in experiment [2] (setting [4]) it was 13 number of sections. The “C GUS + adventitious bud differentiated (number of sections)” value was 1 number of sections in experiment [1] (additive 1 μM in medium), 0 number of sections in experiment [1] (additive 10 μM in medium), 2 number of sections in experiment [2] (setting [3]) and 1 number of sections in experiment [2] (setting [4]). Also, the “B/A Redifferentiation ratio” value in experiment [1] (additive 1 μM in medium) is recorded as 20.5%; in experiment [1] (additive 10 μM in medium), 15.9%; in experiment [2] (NAA 1 μM in medium), 14.5%; in experiment [2] (NAA 10 μM in medium), 32.5%. The “C/A Gene introduction ratio” value stood at 2.3% in experiment [1] (additive 1 μM in medium), 0.0% in experiment [1] (additive 10 μM in medium), 3.2% in experiment [2] (NAA 1 μM in medium) and 2.5% in experiment [2] (NAA 10 μM in medium). The “C/B Selection efficiency” value in experiment [1] (additive 1 μM in medium) was 11.1%; in experiment [1] (additive 10 μM in medium) it was 0%; in experiment [2] (NAA 1 μM in medium), 22.2%; in experiment [2] (NAA 10 μM in medium) it was 7.7%.
